Results on ten molecules are retold here after US4570006A, “Amidine compound, process for producing same and anti-complement agent comprising same” (Torii & Co. Ltd., priority 1981, dated 1986).

The structures appear in SMILES notation.

For assay [1], the target named is T1, Trypsin (Bos taurus, UniProt P00760).
T1 sequence (P00760 24-246): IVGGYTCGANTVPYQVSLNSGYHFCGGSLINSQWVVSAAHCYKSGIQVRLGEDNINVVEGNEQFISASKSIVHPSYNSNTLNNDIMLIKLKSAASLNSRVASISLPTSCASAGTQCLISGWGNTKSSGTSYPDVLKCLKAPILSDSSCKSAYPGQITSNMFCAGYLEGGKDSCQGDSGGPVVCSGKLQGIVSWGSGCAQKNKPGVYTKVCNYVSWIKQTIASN
The assay can be described thus: Anti-trypsin activity (inhibition of TAME hydrolysis). Format: biochemical. To be noted: read-out: ID50, trypsin. On the procedure: (§1) The anti-trypsin, anti-plasmin, anti-kallikrein and anti-thrombin activities were determined according to the method of Muramatsu et al. [M. Muramatsu, T. Onishi, S. Makino, Y. Hayashi and S. Fujii, J. of Biochem., 58, 214 (1965)]. The data summarized in Table 1 are expressed in terms of molar concentration (ID50) of the test compound which inhibits 50% of the activity of each enzyme to hydrolyze TAME (tosylarginine methyl ester). The compound No. corresponds to the compound number shown in Examples.

Assay [2] deals with Plasmin (Homo sapiens, UniProt P00747). The assay can be described thus: Anti-plasmin activity (inhibition of TAME hydrolysis). Format: biochemical. To be noted: read-out: ID50, plasmin. On the procedure: as §1
Assay [3] deals with Kallikrein. As to the kind of experiment: Anti-kallikrein activity (inhibition of TAME hydrolysis). Format: biochemical. To be noted: read-out: ID50, kallikrein. On the procedure: as §1
In assay [4] the target is Thrombin (Homo sapiens, UniProt P00734). As to the kind of experiment: biochemical. To be noted: TAME hydrolysis; read-out: ID50, thrombin.
Assay [5] has as its target T2, Clr (Homo sapiens, UniProt P00736).
T2 sequence (P00736 464-705 limits assumed): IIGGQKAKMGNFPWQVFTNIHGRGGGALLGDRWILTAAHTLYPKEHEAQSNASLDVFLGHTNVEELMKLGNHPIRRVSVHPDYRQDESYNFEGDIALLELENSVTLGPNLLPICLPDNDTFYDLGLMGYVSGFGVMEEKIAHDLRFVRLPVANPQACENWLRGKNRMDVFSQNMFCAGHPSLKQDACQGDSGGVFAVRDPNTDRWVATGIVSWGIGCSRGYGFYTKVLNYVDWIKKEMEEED
T2 sequence (P00736 18-463 limits assumed): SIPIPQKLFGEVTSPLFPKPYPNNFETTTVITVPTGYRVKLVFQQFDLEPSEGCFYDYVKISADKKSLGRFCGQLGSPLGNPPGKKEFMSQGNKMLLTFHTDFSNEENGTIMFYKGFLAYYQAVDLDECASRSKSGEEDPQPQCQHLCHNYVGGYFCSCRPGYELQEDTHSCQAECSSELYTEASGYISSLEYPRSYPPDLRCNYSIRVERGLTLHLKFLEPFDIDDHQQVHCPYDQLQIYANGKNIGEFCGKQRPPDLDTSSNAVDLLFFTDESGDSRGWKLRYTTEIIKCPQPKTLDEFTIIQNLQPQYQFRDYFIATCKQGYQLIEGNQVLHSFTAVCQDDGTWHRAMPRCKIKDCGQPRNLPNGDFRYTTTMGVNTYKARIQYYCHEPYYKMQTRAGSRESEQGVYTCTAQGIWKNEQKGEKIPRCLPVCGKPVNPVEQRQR
As to the kind of experiment: Anti-Cl esterase activity, Clr (AAME hydrolysis). Type of assay: biochemical. To be noted: hydrolysis of AAME; read-out: Anti-Cl activity, Clr (ID50). On the procedure: The anti-Cl esterase ([…]) activity was determined according to the method of Okamura et al. [K. Okamura, M. Muramatsu and B. Fujii, Biochem. Biophys.

Assay [6] concerns complement. The assay can be described thus: Inhibition of complement mediated hemolysis. Format: cell-based. On the procedure:
The complement mediated hemolysis is widely used as a means to determine the titration of complement. The principle of this method is based on the fact that hemolysis if caused by the activation of complement, when the latter is added to a complex (immune complex) of erythrocytes and the antibody thereof. The degree of hemolysis varies in proportion to the amount of complement added. Therefore, when a known amount of complement admixed with a Cl esterase inhibitor is used, the hemolysis must be suppressed in proportion to the inhibitory activity.
The anti-Cl esterase (Clr, Cls) activity was determined according to the method of Okamura et al. [K. Okamura, M. Muramatsu and B. Fujii, Biochem. Biophys. […] The figures in Table 2 have the following meanings: […]

Assay [7] deals with T3, Cls (Homo sapiens, UniProt P09871).
T3 sequence (P09871 438-688 limits assumed): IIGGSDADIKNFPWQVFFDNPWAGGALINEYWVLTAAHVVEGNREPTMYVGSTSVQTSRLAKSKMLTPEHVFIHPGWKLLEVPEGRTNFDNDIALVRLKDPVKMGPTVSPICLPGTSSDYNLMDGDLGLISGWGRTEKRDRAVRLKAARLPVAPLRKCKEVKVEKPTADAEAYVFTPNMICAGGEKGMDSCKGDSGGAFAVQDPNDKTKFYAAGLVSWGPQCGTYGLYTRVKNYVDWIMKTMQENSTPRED
T3 sequence (P09871 16-437 limits assumed): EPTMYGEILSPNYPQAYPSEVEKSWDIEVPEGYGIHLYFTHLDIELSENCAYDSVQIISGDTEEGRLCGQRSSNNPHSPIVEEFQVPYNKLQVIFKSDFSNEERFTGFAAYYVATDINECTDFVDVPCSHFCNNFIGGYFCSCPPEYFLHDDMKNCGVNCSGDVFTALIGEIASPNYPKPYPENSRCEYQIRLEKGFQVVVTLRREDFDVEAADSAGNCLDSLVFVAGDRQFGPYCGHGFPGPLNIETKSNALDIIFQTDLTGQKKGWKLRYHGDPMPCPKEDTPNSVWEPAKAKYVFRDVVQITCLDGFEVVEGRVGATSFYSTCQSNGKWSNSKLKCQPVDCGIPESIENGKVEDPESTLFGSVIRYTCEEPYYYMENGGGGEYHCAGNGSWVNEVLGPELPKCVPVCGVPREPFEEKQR
As to the kind of experiment: Anti-Cl esterase activity, Cls (ATEE hydrolysis). Format: biochemical. To be noted: hydrolysis of ATEE; read-out: Anti-Cl activity, Cls (50% inhibition). On the procedure: The anti-Cl esterase (Clr, Cls) activity was determined according to the method of Okamura et al. [K. Okamura, M. Muramatsu and B. Fujii, Biochem. Biophys. […] The figures in Table 2 have the following meanings:
Cls: Molar concentration of the test compound which inhibits 50% of the ability of Cls to hydrolyse ATEE (acetyltyrosin ethyl ester).

Chain of Plasmin (P00747 581-810 limits assumed, species assumed): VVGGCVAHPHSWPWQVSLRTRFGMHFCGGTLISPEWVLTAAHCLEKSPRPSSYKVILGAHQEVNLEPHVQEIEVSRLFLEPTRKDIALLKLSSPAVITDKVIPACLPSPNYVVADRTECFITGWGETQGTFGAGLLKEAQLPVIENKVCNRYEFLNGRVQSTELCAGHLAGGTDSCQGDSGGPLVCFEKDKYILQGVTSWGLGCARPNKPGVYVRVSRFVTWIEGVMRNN
Chain of Plasmin (P00747 97-580 limits assumed, species assumed): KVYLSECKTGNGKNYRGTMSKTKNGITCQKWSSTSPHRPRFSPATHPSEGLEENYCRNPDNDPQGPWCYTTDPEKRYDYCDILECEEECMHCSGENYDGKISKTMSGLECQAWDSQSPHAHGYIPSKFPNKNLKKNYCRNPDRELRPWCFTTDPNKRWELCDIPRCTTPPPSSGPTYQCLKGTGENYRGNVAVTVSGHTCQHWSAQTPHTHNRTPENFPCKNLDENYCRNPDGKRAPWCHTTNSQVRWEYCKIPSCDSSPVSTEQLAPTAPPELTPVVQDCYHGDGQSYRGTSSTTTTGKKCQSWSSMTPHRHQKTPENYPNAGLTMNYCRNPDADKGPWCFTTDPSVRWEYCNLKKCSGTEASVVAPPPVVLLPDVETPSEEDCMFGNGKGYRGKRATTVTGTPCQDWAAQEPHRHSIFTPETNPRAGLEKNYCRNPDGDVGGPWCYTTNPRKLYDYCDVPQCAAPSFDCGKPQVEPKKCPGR

Consider `CC(=O)Oc1ccc(C(=N)N)cc1C(=O)c1ccccc1` [Compound 1, 4-amidino-2-benzoylphenyl acetate], for which the IC50 in assay [1], in assay [2], in assay [3], in assay [4] and in assay [5] was greater than 10 µM each time. Further, the “Inhibition of complement mediated hemolysis (%)” value (“Inhibition … (%)” for short) is on record as 95.9% in assay [6] (compound at 1 × 10^-4), 37.3% in assay [6] (compound at 1 × 10^-5), 16.0% in assay [6] (compound at 1 × 10^-6) and 0% in assay [6] (compound at 1 × 10^-7).
Regarding `CC(=O)Oc1ccc(C(=N)N)cc1[N+](=O)[O-]` [Compound 2, 4-amidino-2-nitrophenyl acetate], the IC50 in assay [1], in assay [2], in assay [3] and in assay [4] was greater than 10 µM in each case. Besides, the “Inhibition … (%)” value in assay [6] (compound at 1 × 10^-4) is listed as 97.3%; in assay [6] (compound at 1 × 10^-5), 30.1%; in assay [6] (compound at 1 × 10^-6) it was 3.9%; in assay [6] (compound at 1 × 10^-7), 2.1%.
As to `CC=CC=CC(=O)Oc1ccc(C(=N)N)cc1C(=O)OC` [Compound 5], the IC50 is 0.7 µM in assay [1]; 0.3 µM in assay [2]; 1 µM in assay [3]; 2 µM in assay [4]; 5 µM in assay [5]; 0.9 µM in assay [7]. For the same molecule, the “Inhibition … (%)” value is listed as 100% in assay [6] (compound at 1 × 10^-4), 97.0% in assay [6] (compound at 1 × 10^-5), 47.2% in assay [6] (compound at 1 × 10^-6) and 3.0% in assay [6] (compound at 1 × 10^-7).
Take `CC=CC=CC(=O)Oc1ccc(C(=N)N)cc1C(=O)c1ccccc1` [Compound 6]: the IC50 is 0.2 µM in assay [1]; 0.4 µM in assay [2]; 0.3 µM in assay [3]; 0.08 µM in assay [4]; 1 µM in assay [5]; 0.3 µM in assay [7]. The “Inhibition … (%)” value in assay [6] (compound at 1 × 10^-4) was 100%; in assay [6] (compound at 1 × 10^-5), 97.7%; in assay [6] (compound at 1 × 10^-6) it was 52.9%; in assay [6] (compound at 1 × 10^-7) it was 5.0%.
For `N=C(N)c1ccc(OC(=O)C2CC2)c([N+](=O)[O-])c1` [Compound 7, 4-amidino-2-nitrophenyl cyclopropanecarboxylate], the IC50 in assay [1] was greater than 10 µM; in assay [2], 4 µM; in assay [3] it was greater than 10 µM; in assay [4], 0.5 µM; in assay [5], greater than 10 µM. Also, the “Inhibition … (%)” value in assay [6] (compound at 1 × 10^-4) was 99.0%; in assay [6] (compound at 1 × 10^-5) it was 78.2%; in assay [6] (compound at 1 × 10^-6) it was 10.2%; in assay [6] (compound at 1 × 10^-7), 1.7%.
Regarding `N=C(N)c1ccc(OC(=O)CCNC(=O)OCc2ccccc2)c(C(=O)c2ccccc2)c1` [Compound 10, 4-amidino-2-benzoylphenyl 3-benzyloxycarbonylaminopropionate], the IC50 in assay [1] is greater than 10 µM; in assay [2], greater than 10 µM; in assay [3] it was greater than 10 µM; in assay [4] it was 2 µM; in assay [5], greater than 10 µM. Besides, the “Inhibition … (%)” value in assay [6] (compound at 1 × 10^-4) was 95.9%; in assay [6] (compound at 1 × 10^-5), 80.3%; in assay [6] (compound at 1 × 10^-6) it was 17.0%; in assay [6] (compound at 1 × 10^-7) it was 2.3%.
For `N=C(N)c1ccc(OC(=O)CCN)c(C(=O)c2ccccc2)c1` [Compound 11, 4-amidino-2-benzoylphenyl 3-aminopropionate], the IC50 in assay [1], in assay [2], in assay [3], in assay [4] and in assay [5] was greater than 10 µM each time. For the same molecule, the “Inhibition … (%)” value in assay [6] (compound at 1 × 10^-4) amounted to 17.4%; in assay [6] (compound at 1 × 10^-5), 2.5%; in assay [6] (compound at 1 × 10^-6), 2.5%; in assay [6] (compound at 1 × 10^-7), 3.5%.
`N=C(N)c1ccc(OC(=O)CCCCCNC(=O)OCc2ccccc2)c(C(=O)c2ccccc2)c1` [Compound 12, 4-amidino-2-benzoylphenyl 6-benzyloxycarbonylaminocaproate]: the IC50 in assay [1] is 6 µM; in assay [2], greater than 10 µM; in assay [3], greater than 10 µM; in assay [4], 4 µM; in assay [5], greater than 10 µM; in assay [7], 5 µM. The “Inhibition … (%)” value in assay [6] (compound at 1 × 10^-4) is on record as 91.3%; in assay [6] (compound at 1 × 10^-5), 57.8%; in assay [6] (compound at 1 × 10^-6), 15.0%; in assay [6] (compound at 1 × 10^-7), 3.8%.
On to `COc1cc(C(=N)N)ccc1OC(=O)c1ccccc1` [Compound 23, 4-amidino-2-methoxyphenyl benzoate], for which the IC50 came to 10 µM in assay [1]; 20 µM in assay [2]; 60 µM in assay [3]; 0.2 µM in assay [4]; 7 µM in assay [5]; 5 µM in assay [7].
On to `CSc1ccc(C(=O)Oc2ccc(C(=N)N)cc2C(=O)c2ccccc2)cc1` [Compound 49], for which the IC50 in assay [1] is 0.03 µM; in assay [2], 0.2 µM; in assay [3], 0.4 µM; in assay [4], less than 0.01 µM; in assay [5] it was 1 µM. The “Inhibition … (%)” value is on record as 83.8% in assay [6] (compound at 1 × 10^-4), 94.6% in assay [6] (compound at 1 × 10^-5), 97.5% in assay [6] (compound at 1 × 10^-6) and 75.1% in assay [6] (compound at 1 × 10^-7).
